Experimental data reported in patent US20250268261A1, “METHODS FOR THE CONTROL OF POA ANNUA IN WARM SEASON TURFGRASS USING THIENCARBAZONE-METHYL” (Discovery Purchaser Corporation, priority 2024, published 2025).

Experiments:
Format in all cases: in vivo
Poa annua [1] = assay: Single application to warm season turfgrass according to the disclosed methods (summary statement); conditions: early post-emergence, for at least 120 days following application
Poa annua [2] = assay: Field trial, bermudagrass stands infested with Poa annua, Clayton, North Carolina, autumn 2022; conditions: FIG. 11
Text: (§1) As used herein, the term “Abbott's percentage reduction,” in all of its forms, refers to a measure of percentage control relative to the population in an untreated control stand of turfgrass. Rather than representing a simple percentage control on a per treatment basis, the Abbott's percentage reduction measure accounts for naturally occurring shifts in the target population and limits rating bias over time. Abbott's percentage reduction may be represented by the following
Stands of bermudagrass infested with Poa annua were treated with thiencarbazone-methyl (TCM) at different stages of Poa annua development and under different climatological conditions in a set of trials conducted during the autumn of 2022 in Clayton, North Carolina. Stands of bermudagrass containing Poa annua in a pre-emergent growth phase were treated with thiencarbazone-methyl (TCM) on September 23rd. Stands of bermudagrass containing Poa annua in an early post-emergent growth state characterized by having two or fewer tillers were treated with thiencarbazone-methyl (TCM) on November 21st. Stands of bermudagrass containing Po annua in a late post-emergent growth state characterized by having more than two tillers were treated with thiencarbazone-methyl (TCM) on December 8th. The Clayton trial data is shown in FIG. 11 while FIG. 13 provides the corresponding environmental data for Clayton during the trials. […]

Poa annua [3] = assay: Field trial, bermudagrass stands infested with Poa annua, Blacksburg, Virginia, autumn 2022; conditions: FIG. 10
Text: as §1
Stands of bermudagrass infested with Poa annua were treated with thiencarbazone-methyl (TCM) at different stages of Poa annua development and under different climatological conditions in a set of trials conducted during the autumn of 2022 in Blacksburg, Virginia. Stands of bermudagrass containing Poa annua in a pre-emergent growth phase were treated with thiencarbazone-methyl (TCM) on September 14th. Stands of bermudagrass containing Poa annua in an early post-emergent growth state characterized by having two or fewer tillers were treated with thiencarbazone-methyl (TCM) on October 5th. Stands of bermudagrass containing Poa annua in a late post-emergent growth state characterized by having more than two tillers were treated with thiencarbazone-methyl (TCM) on November 9th. The Blacksburg trial data is shown in FIG. 10 while FIG. 12 provides the corresponding environmental data for Blacksburg during the trials. The Days After Application “DAA” shown in FIG. 10 refers to the days after thiencarbazone-methyl (TCM) was applied to the stands of bermudagrass containing Poa annua in a pre-emergent growth phase on Sep. 14, 2022. The horizontal line in FIG. 12 represents the temperature (66 degrees Fahrenheit) at which peak Poa annua germination has been observed. […] However, treatment of bermudagrass stands containing Poa annua at a later growth stage fell well below the minimum commercially acceptable 80% Abbott control threshold effectiveness.

COC(=O)c1csc(C)c1S(=O)(=O)NC(=O)n1nc(OC)n(C)c1=O [thiencarbazone-methyl, methyl 4-[(3-methoxy-4-methyl-5-oxo-1,2,4-triazole-1-carbonyl)sulfamoyl]-5-methylthiophene-3-carboxylate]
reduction in Poa annua population (Poa annua [1]): ≥ 80%
Abbott control threshold effectiveness (Poa annua [2]; 30 g/ha, early post-emergent growth phase (two or fewer tillers, treated November 21), 117 days after the pre-emergence treatment application): ≥ 80%
Abbott control threshold effectiveness (Poa annua [2]; Poa annua at a later growth stage (more than two tillers, treated December 8)): < 80%
Abbott control threshold effectiveness (Poa annua [3]; 15 g/ha, early post-emergent growth phase (two or fewer tillers, treated October 5), 77, 91 and 148 days after the pre-emergence treatment application): ≥ 80%
Abbott control threshold effectiveness (Poa annua [3]; 30 g/ha, early post-emergent growth phase (two or fewer tillers, treated October 5), 77, 91 and 148 days after the pre-emergence treatment application): ≥ 80%
Abbott control threshold effectiveness (Poa annua [3]; Poa annua at a later growth stage (more than two tillers, treated November 9)): < 80%
